Our source for the IC50 values is patent publication US12667572B2, “Tricyclic compounds useful in the treatment of cancer, autoimmune and inflammatory disorders” (SCHRÖDINGER, INC., priority 2021, dated 2026).

This test addresses T1, full-length MALT1 protein His-MALT1(1-824) (Homo sapiens, UniProt Q9UDY8).
T1 construct: full-length MALT1 protein His-MALT1(1-824); His (N); made in house; host or cells: baculovirus-infected insect cells
T1 sequence (Q9UDY8 1-824): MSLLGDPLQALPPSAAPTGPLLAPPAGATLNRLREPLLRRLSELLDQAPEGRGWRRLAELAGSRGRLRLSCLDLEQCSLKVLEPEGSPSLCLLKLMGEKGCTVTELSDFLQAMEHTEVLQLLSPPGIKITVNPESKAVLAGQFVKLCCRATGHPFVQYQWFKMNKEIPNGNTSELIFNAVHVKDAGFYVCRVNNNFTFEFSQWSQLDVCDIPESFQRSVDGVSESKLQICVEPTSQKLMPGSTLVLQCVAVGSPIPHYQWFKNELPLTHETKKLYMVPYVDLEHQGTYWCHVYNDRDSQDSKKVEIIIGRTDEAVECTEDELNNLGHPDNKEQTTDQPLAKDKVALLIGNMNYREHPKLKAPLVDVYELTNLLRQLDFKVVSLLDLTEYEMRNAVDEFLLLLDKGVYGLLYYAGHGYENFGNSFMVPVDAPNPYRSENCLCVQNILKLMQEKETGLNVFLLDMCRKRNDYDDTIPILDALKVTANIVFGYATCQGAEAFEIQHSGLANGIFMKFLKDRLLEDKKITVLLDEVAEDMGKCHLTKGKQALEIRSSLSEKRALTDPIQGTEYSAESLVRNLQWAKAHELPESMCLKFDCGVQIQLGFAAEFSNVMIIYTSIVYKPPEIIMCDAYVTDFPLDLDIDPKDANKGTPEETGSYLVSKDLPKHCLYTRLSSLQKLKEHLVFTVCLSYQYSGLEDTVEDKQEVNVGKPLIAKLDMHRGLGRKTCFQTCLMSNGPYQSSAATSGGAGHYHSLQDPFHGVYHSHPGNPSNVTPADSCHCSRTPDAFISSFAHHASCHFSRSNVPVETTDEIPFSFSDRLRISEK
In words: MALT1 protease assay, Assay 2 (1 nM MALT1, Ac-LRSR-AMC substrate). Format: biochemical. The following applies: 1 nM MALT1, 50 μM Ac-LRSR-AMC, 2 h pre-incubation, 8 hr incubation at RT. The gist of the method: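 Compounds (0.1% DMSO final) sat 2 h at RT with insect-cell-expressed His-MALT1(1-824), in 50 mM Tris pH 7.5, 600 mM sodium citrate, 1 mM DTT, 1 mM EDTA, 0.05% BSA. Cleavage of 50 μM Ac-LRSR-AMC (Km ~100 μM) ran 8 h at RT, read as AMC fluorescence. IC50 and Hill coefficient fitted to % remaining activity.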

In the case of `CC1(C)C[C@@H](C(=O)Nc2cnc(-n3nccn3)c(Cl)c2)c2cnn3cc(Cl)nc3c21` (single isomer, unassigned) [Example 194, 2-chloro-N-(5-chloro-6-(2H-1,2,3-triazol-2-yl)pyridin-3-yl)-9,9-dimethyl-8,9-dihydro-7H-cyclopenta[d]imidazo[1,2-b]pyridazine-7-carboxamide], the 50% inhibitory concentration (IC50) (as a rule, the concentration that inhibits the measured activity by half) is 100 to 1000 nM. For `CC1(C)C[C@@H](C(=O)Nc2cnc(-n3nccn3)c(C(F)F)c2)c2cnc3cc(Cl)nn3c21` (single isomer, unassigned) [Example 46, 2-chloro-N-(5-(difluoromethyl)-6-(2H-1,2,3-triazol-2-yl)pyridin-3-yl)-8,8-dimethyl-7,8-dihydro-6H-cyclopenta[e]pyrazolo[1,5-a]pyrimidine-6-carboxamide], the IC50 was at least 1000 nM.

Turning to `CC1(C)CC(C(=O)Nc2cnc(OC(F)F)c(C#N)c2)c2cnn3cc(C(F)F)nc3c21` (single isomer, unassigned) [Example 199, N-(5-cyano-6-(difluoromethoxy)pyridin-3-yl)-2-(difluoromethyl)-9,9-dimethyl-8,9-dihydro-7H-cyclopenta[d]imidazo[1,2-b]pyridazine-7-carboxamide], the 50% inhibitory concentration (IC50) fell in the range of 10 to 100 nM.

`CC1(C)CC(C(=O)Nc2cnc(N=S(C)(C)=O)c(Cl)c2)c2cnc3cc(F)nn3c21` (single isomer, unassigned) [Example 131, N-(5-chloro-6-((dimethyl(oxo)-λ^6-sulfaneylidene)amino)pyridin-3-yl)-2-fluoro-8,8-dimethyl-7,8-dihydro-6H-cyclopenta[e]pyrazolo[1,5-a]pyrimidine-6-carboxamide] displayed an IC50 of at least 1000 nM. On to `O=C(Nc1cnc(-n2nccn2)c(Cl)c1)C1CC2(COC2)c2c1cnc1cc(Cl)nn21` (stereo not shown) [Example 165, 2-chloro-N-(5-chloro-6-(2H-1,2,3-triazol-2-yl)pyridin-3-yl)-6,7-dihydrospiro[cyclopenta[e]pyrazolo[1,5-a]pyrimidine-8,3′-oxetane]-6-carboxamide], for which the half-inhibitory concentration (IC50) is at least 1000 nM. For `CC1(C)CC(C(=O)Nc2cc(C(F)F)c(-c3cc[nH]n3)c(=O)[nH]2)c2cnc3cc(Cl)nn3c21` (stereo not shown) [Example 43, 2-chloro-N-(4-(difluoromethyl)-6-oxo-5˜(1H-pyrazol-3-yl)-1,6-dihydropyridin-2-yl)-8,8-dimethyl-7,8-dihydro-6H-cyclopenta[e]pyrazolo[1,5a]pyrimidine-6-carboxamide], the IC50 was in the range of 10 to 100 nM. Turning to `O=C(Nc1cnc(-n2nccn2)c(Cl)c1)C1CC2(CCC2)c2c1cnc1cc(F)nn21` (single isomer, unassigned) [Example 109, N-(5-chloro-6-(2H-1,2,3-triazol-2-yl)pyridin-3-yl)-2′-fluoro-6′,7′-dihydrospiro[cyclobutane-1,8′-cyclopenta[e]pyrazolo[1,5-a]pyrimidine]-6′-carboxamide], the IC50 is at least 1000 nM. `CC1(C)CC(C(=O)Nc2cnc(OC(F)F)c(C#N)n2)c2cnc3cc(F)nn3c21` (single isomer, unassigned) [Example 87, N-(6-cyano-5-(difluoromethoxy)pyrazin-2-yl)-2-fluoro-8,8-dimethyl-7,8-dihydro-6H-cyclopenta[e]pyrazolo[1,5-a]pyrimidine-6-carboxamide] displayed an IC50 of at least 1000 nM. As to `CC1(C)C[C@@H](C(=O)Nc2cnc(OC(F)F)c(C#N)c2)c2cnc3cc(F)nn3c21` (single isomer, unassigned) [Example 83, N-(5-cyano-6-(difluoromethoxy)pyridin-3-yl)-2-fluoro-8,8-dimethyl-7,8-dihydro-6H-cyclopenta[e]pyrazolo[1,5-a]pyrimidine-6-carboxamide], the half-maximal inhibitory concentration (IC50) is 100 to 1000 nM. Under `C[C@]1(C(F)(F)F)C[C@H](C(=O)Nc2cnc(-n3nccn3)c(Cl)c2)c2cnc3cc(F)nn3c21` (single isomer, unassigned) [Example 187] stands 10 to 100 nM; under `CC1(C)CC(C(=O)Nc2ccnc(C(F)(F)F)c2)c2cnn3cc(C(F)F)nc3c21` (single isomer, unassigned) [Example 201, 2-(difluoromethyl)-9,9-dimethyl-N-(2-(trifluoromethyl)pyridin-4-yl)-8,9-dihydro-7H-cyclopenta[d]imidazo[1,2-b]pyridazine-7-carboxamide], 100 to 1000 nM.

Molecule `CC1(C)C[C@@H](C(=O)Nc2cnc(-n3nccn3)c(C#N)c2)c2cnc3cc(C(F)F)nn3c21` (single isomer, unassigned) [Example 129, N-(5-cyano-6-(2H-1,2,3-triazol-2-yl)pyridin-3-yl)-2-(difluoromethyl)-8,8-dimethyl-7,8-dihydro-6H-cyclopenta[e]pyrazolo[1,5-a]pyrimidine-6-carboxamide] had an IC50 of 100 to 1000 nM. Turning to `O=C(Nc1cnc([C@@H](O)C(F)F)c(Cl)c1)[C@H]1CC2(CCC2)c2c1cnc1cc(F)nn21` (single isomer, unassigned) [Example 135, N-(5-chloro-6-(2,2-difluoro-1-hydroxyethyl)pyridin-3-yl)-2′-fluoro-6′,7′-dihydrospiro[cyclobutane-1,8′-cyclopenta[e]pyrazolo[1,5-a]pyrimidine]-6′-carboxamide], the IC50 lay within 100 to 1000 nM. Under `C[C@@]1(C(F)(F)F)C[C@@H](C(=O)Nc2cnc(-n3nccn3)c(Cl)c2)c2cnc3cc(F)nn3c21` (single isomer, unassigned) [Example 185] stands below 10 nM; under `O=C(Nc1cnc(C(O)C(F)F)c(Cl)c1)C1CC2(CCC2)c2c1cnc1cc(F)nn21` (single isomer, unassigned) [Example 134, N-(5-chloro-6-(2,2-difluoro-1-hydroxyethyl)pyridin-3-yl)-2′-fluoro-6′,7′-dihydrospiro[cyclobutane-1,8′-cyclopenta[e]pyrazolo[1,5-a]pyrimidine]-6′-carboxamide], at least 1000 nM; under `N#Cc1cc(NC(=O)[C@H]2CC3(CCOCC3)c3c2cnc2cc(F)nn32)cnc1OC(F)F` (single isomer, unassigned) [Example 146, N-(5-cyano-6-(difluoromethoxy)pyridin-3-yl)-2-fluoro-2′,3′,5′,6,6′,7-hexahydrospiro[cyclopenta[e]pyrazolo[1,5-a]pyrimidine-8,4′-pyran]-6-carboxamide], 10 to 100 nM. Next, `N#Cc1cc(NC(=O)C2CC3(CC3)c3c2cnc2cc(F)nn32)cnc1OC(F)F` (stereo not shown) [Example 82, N-(5-cyano-6-(difluoromethoxy)pyridin-3-yl)-2-fluoro-6,7-dihydrospiro[cyclopenta[e]pyrazolo[1,5-a]pyrimidine-8,1′-cyclopropane]-6-carboxamide]: 10 to 100 nM; `CC1(C)C[C@@H](C(=O)Nc2cnc(-n3nccn3)c(C(F)(F)F)c2)c2cnn3cc(Cl)nc3c21` (single isomer, unassigned) [Example 192, N-(6-(2H-1,2,3-triazol-2-yl)-5-(trifluoromethyl)pyridin-3-yl)-2-chloro-9,9-dimethyl-8,9-dihydro-7H-cyclopenta[d]imidazo[1,2-b]pyridazine-7-carboxamide]: 100 to 1000 nM; `Cc1c(F)nn2c3c(cnc12)C(C(=O)Nc1cnc(-n2nccn2)c(Cl)c1)CC3(C)C` (single isomer, unassigned) [Example 113, N-(5-chloro-6-(2H-1,2,3-triazol-2-yl)pyridin-3-yl)-2-fluoro-3,8,8-trimethyl-7,8-dihydro-6H-cyclopenta[e]pyrazolo[1,5-a]pyrimidine-6-carboxamide]: at least 1000 nM.
